Assay results from article PMC12683216, “Using High‐Throughput Screening to Identify Crosslinking Peptides That Control Cell‐Mediated Matrix Degradation” (Advanced Healthcare Materials, 2025).
Like-named read-outs stand apart in the source and are kept apart here. Where a SMILES comes first, the peptide text is derived from it. [ ]: non-standard residue; d: D form. βAla = NCCC(=O)O

Test: Soluble peptide degradation, Media condition (cell-conditioned media, LC-MS)
Format: in vitro ADME, human
In short: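 Pooled peptide library added to medium conditioned by hUVECs or hMSCs with cells removed. Fraction remaining after 24 h measured by LC-MS (positive-ion ESI). Value is peptide peak area relative to 50 µM non-degradable βFβA6 internal standard.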

[1] = human, hMSC-conditioned media without cells (Media condition), Figure 3B heatmap, split-and-pool libraries KLVADX1X2ASAE in hMSC-conditioned media without cells, 24 h, LC-MS, ratio to βFβA6, N = 2, read-out: Fraction of peptide remaining after 24 hours: hMSC Media
[2] = Figure 3C, individually synthesized soluble peptide, 50 µM, hMSC-conditioned media without cells, 24 h, LC-MS, ratio to βFβA6, N = 6
[3] = human, Figure 2B heatmap, pooled TAILS-derived soluble peptides in 24 h hMSC-conditioned media without cells, 24 h, LC-MS, ratio to βFβA6 internal standard, 24 h / 0 h, N = 5, read-out: Fraction of peptide remaining at 24 hours: hMSC Media

Row | remaining at 24 h [1] [%] | Fraction of peptide remaining after 24 hours: hMSC Media [2] | remaining at 24 h [3] [%] | Structure (SMILES) | further results
1 | 81 | – | – | CC(=O)NCCC(=O)N[C@@H](CCCCN)C(=O)N[C@@H](CC(C)C)C(=O)N[C@H](C(=O)N[C@@H](C)C(=O)N[C@@H](CC(=O)O)C(=O)N1CCC[C@H]1C(=O)N[C@@H](Cc1ccc(O)cc1)C(=O)N[C@@H](C)C(=O)N[C@@H](CO)C(=O)N[C@@H](C)C(=O)N[C@@H](CCC(=O)O)C(=O)NCCC(N)=O)C(C)C [KLVAD-PY] (Ac-[βAla]KLVADPYASAE[βAla]-NH2) | remaining at 24 h, 50 µM (human, hMSC-conditioned media without cells (Media condition), Figure 3C, individually synthesized soluble peptide, 50 µM, hMSC-conditioned media without cells, 24 h, LC-MS, ratio to βFβA6, N = 6, read-out: Fraction of peptide remaining after 24 hours: hMSC Media): 96%
2 | – | – | – | CSCC[C@H](NC(=O)[C@H](CC(C)C)NC(=O)[C@H](CC(=O)O)NC(=O)[C@H](C)NC(=O)[C@@H](NC(=O)[C@H](CC(C)C)NC(=O)[C@H](CCCCN)NC(=O)CCNC(C)=O)C(C)C)C(=O)N[C@@H](C)C(=O)N[C@@H](CO)C(=O)N[C@@H](C)C(=O)N[C@@H](CCC(=O)O)C(=O)NCCC(N)=O [KLVAD-LM] (Ac-[βAla]KLVADLMASAE[βAla]-NH2) | degraded across all Media conditions: less than 10%; remaining at 24 h, 50 µM (human, cells or culture medium): 97%
3 | – | 0.85 | 86 | CC[C@H](C)[C@H](NC(=O)CNC(=O)[C@H](CCC(N)=O)NC(=O)[C@@H]1CCCN1C(=O)CNC(=O)CCNC(C)=O)C(=O)N[C@@H](Cc1c[nH]c2ccccc12)C(=O)NCC(=O)N[C@@H](CCC(N)=O)C(=O)NCCC(N)=O [PanMMP, reference compound] (Ac-[βAla]GPQGIWGQ[βAla]-NH2) | peptide remaining, Media condition, hMSCs (Figure 3C, 50 µM soluble peptide, 24 h, LC-MS, N = 6): 85%; remaining at 24 h, 50 µM (human, hMSC-conditioned media without cells, no exogenous MMP-14, Figure 7 study, 24 h, LC-MS, N = 3 with technical triplicates, read-out: peptide remaining in hMSC conditioned media without exogenous MMP-14): 85%
4 | 84 | 0.92 | 97 | CC(=O)NCCC(=O)N[C@@H](CCCCN)C(=O)N[C@@H](CC(C)C)C(=O)N[C@H](C(=O)N[C@@H](C)C(=O)N[C@@H](CC(=O)O)C(=O)N[C@@H](CC(N)=O)C(=O)N[C@@H](Cc1ccc(O)cc1)C(=O)N[C@@H](C)C(=O)N[C@@H](CO)C(=O)N[C@@H](C)C(=O)N[C@@H](CCC(=O)O)C(=O)NCCC(N)=O)C(C)C [KLVAD-NY] (Ac-[βAla]KLVADNYASAE[βAla]-NH2) | metabolised at 24 h (human, Figure 2B screen, hMSC-conditioned media, 24 h, LC-MS): < 3%
